These compounds were tested against hepatitis C virus RNA dependant polymerase (NS5B) (Hepatitis C virus genotype 1b, UniProt P26663) (assay: Inhibition of NS5B RNA dependent RNA polymerase activity). Settings: Table 1; HCV NS5B polymerase.
Type: biochemical
Method: A suitable assay is described in the examples.
Inhibition of NS5B RNA Dependent RNA Polymerase Activity
The compounds of the invention were tested for inhibitory activity against the hepatitis C virus RNA dependant polymerase (NS5B), according to protocol described in WO 03/010141

Chain of hepatitis C virus RNA dependant polymerase (NS5B) (P26663 2420-3010): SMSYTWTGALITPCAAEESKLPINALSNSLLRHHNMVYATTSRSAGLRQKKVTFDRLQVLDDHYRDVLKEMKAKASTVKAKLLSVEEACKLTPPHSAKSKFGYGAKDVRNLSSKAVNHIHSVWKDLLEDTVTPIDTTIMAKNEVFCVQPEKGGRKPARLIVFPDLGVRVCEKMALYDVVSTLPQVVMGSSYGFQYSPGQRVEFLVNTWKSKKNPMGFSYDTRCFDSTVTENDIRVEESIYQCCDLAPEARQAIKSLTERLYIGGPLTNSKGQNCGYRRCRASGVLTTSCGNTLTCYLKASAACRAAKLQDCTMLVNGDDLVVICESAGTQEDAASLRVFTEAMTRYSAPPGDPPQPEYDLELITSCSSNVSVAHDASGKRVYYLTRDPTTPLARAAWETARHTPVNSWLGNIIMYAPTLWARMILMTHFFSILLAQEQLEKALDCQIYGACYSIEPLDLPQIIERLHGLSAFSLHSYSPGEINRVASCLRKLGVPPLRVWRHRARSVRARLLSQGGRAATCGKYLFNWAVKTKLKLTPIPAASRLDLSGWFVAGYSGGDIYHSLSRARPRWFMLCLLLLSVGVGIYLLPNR

| SMILES | IC50 [nM] |
| --- | --- |
| CC(C)(C)C(=O)Cn1c(-c2ccoc2)c(C2CCCCC2)c2ccc(C(=O)O)cc21 [Example 1001] | 200 to 1000 |
| CCN(Cc1ccncc1)C(=O)Cn1c(-c2ccoc2)c(C2CCCCC2)c2ccc(C(=O)O)cc21 [Example 1005] | 200 to 1000 |
| CC(C)CN(C)C(=O)Cn1c(-c2ccoc2)c(C2CCCCC2)c2ccc(C(=O)O)cc21 [Example 1006] | 200 to 1000 |
| O=C(Cn1c(-c2ccoc2)c(C2CCCCC2)c2ccc(C(=O)O)cc21)NCCCN1CCOCC1 [Example 1009] | 200 to 1000 |
| CCCN(CCC)C(=O)Cn1c(-c2ccoc2)c(C2CCCCC2)c2ccc(C(=O)O)cc21 [Example 1011] | 200 to 1000 |
| CS(=O)(=O)NC(=O)Cn1c(-c2ccoc2)c(C2CCCCC2)c2ccc(C(=O)O)cc21 [Example 1013] | 200 to 1000 |
| COCCN(CCOC)C(=O)Cn1c(-c2ccco2)c(C2CCCCC2)c2ccc(C(=O)O)cc21 [Example 1014] | 200 to 1000 |
| CCCN(CCOC)C(=O)Cn1c(-c2ccoc2)c(C2CCCCC2)c2ccc(C(=O)O)cc21 [Example 1015] | 200 to 1000 |
| O=C(O)c1ccc2c(C3CCCCC3)c(-c3ccoc3)n(CC(=O)N3CC[C@@H]4CCCC[C@@H]4C3)c2c1 [Example 1018] | 1000 to 10000 |
| CCN(CCN(C)C)C(=O)Cn1c(-c2ccoc2)c(C2CCCCC2)c2ccc(C(=O)O)cc21 [Example 1022] | 200 to 1000 |
| CC(C)NC(=O)Cn1c(-c2ccco2)c(C2CCCCC2)c2ccc(C(=O)O)cc21 [Example 1032] | 200 to 1000 |
| CC(C)NC(=O)Cn1c(-c2cccs2)c(C2CCCCC2)c2ccc(C(=O)O)cc21 [Example 1036] | 200 to 1000 |
| CN(C)C(=O)Cn1c(-c2cccn2C)c(C2CCCCC2)c2ccc(C(=O)O)cc21 [Example 1039] | 200 to 1000 |
| O=C(O)c1ccc2c(C3CCCCC3)c(-c3csc(N4CCCCC4)n3)n(CC(=O)N3CCOCC3)c2c1 [Example 1040] | 200 to 1000 |
| CC(C)(C)Nc1nc(-c2c(C3CCCCC3)c3ccc(C(=O)O)cc3n2CC(=O)N2CCOCC2)cs1 [Example 1041] | 200 to 1000 |
| O=C(O)c1ccc2c(C3CCCCC3)c(-c3cc4ccccc4s3)n(CC(=O)N3CCOCC3)c2c1 [Example 1042] | 200 to 1000 |
| CN(C)C(=O)Cn1c(-c2cc3ccccc3s2)c(C2CCCCC2)c2ccc(C(=O)O)cc21 [Example 1046] | 1000 to 10000 |
| O=C(O)c1ccc2c(C3CCCCC3)c(-c3csc4ccccc34)n(CC(=O)N3CCOCC3)c2c1 [Example 1047] | 1000 to 10000 |
| O=C(O)c1ccc2c(C3CCCCC3)c(-c3csc4ccccc34)n(CC(=O)N3CCC(N4CCCC4)CC3)c2c1 [Example 1048] | 200 to 1000 |
| O=C(O)c1ccc2c(C3CCCCC3)c(-c3cc4ccccc4s3)n(CC(=O)N3CCC(N4CCCC4)CC3)c2c1 [Example 1049] | 200 to 1000 |
| Nc1cccc(-c2c(C3CCCCC3)c3ccc(C(=O)O)cc3n2CC(=O)N2CCC(N3CCCC3)CC2)n1 [Example 1050] | < 200 |
| CC(C)(NC(=O)Cn1c(-c2ccoc2)c(C2CCCCC2)c2ccc(C(=O)O)cc21)C(=O)Nc1ccc(/C=C/C(=O)O)cc1 [Example 1051] | < 200 |
| CC(C)(NC(=O)Cn1c(-c2ccoc2)c(C2CCCCC2)c2ccc(C(=O)O)cc21)C(=O)Nc1ccc(-c2nc(C(=O)O)cs2)cc1 [Example 1052] | < 200 |
| CC(C)(NC(=O)Cn1c(-c2ccoc2)c(C2CCCCC2)c2ccc(C(=O)O)cc21)C(=O)Nc1ccc(-c2ccc(C(=O)O)o2)cc1 [Example 1053] | < 200 |
| Cn1c(C(=O)O)cc2cc(NC(=O)C(C)(C)NC(=O)Cn3c(-c4ccoc4)c(C4CCCCC4)c4ccc(C(=O)O)cc43)ccc21 [Example 1054] | < 200 |
| O=C(Cn1c(-c2ccoc2)c(C2CCCCC2)c2ccc(C(=O)O)cc21)N[C@@H](Cc1ccc(O)cc1)C(=O)O [Example 1055] | < 200 |
| O=C(Cn1c(-c2ccoc2)c(C2CCCCC2)c2ccc(C(=O)O)cc21)NCc1ccco1 [Example 1056] | 200 to 1000 |

Next, values leading:

| IC50 [nM] | SMILES |
| --- | --- |
| < 200 | CN1CCCN(C(=O)Cn2c(-c3ccoc3)c(C3CCCCC3)c3ccc(C(=O)O)cc32)CC1 [Example 1003] |
| < 200 | CN(CCc1ccncc1)C(=O)Cn1c(-c2ccoc2)c(C2CCCCC2)c2ccc(C(=O)O)cc21 [Example 1004] |
| < 200 | CCN(CC)CCN(CC)C(=O)Cn1c(-c2ccoc2)c(C2CCCCC2)c2ccc(C(=O)O)cc21 [Example 1007] |
| < 200 | CCCN(C)C(=O)Cn1c(-c2ccoc2)c(C2CCCCC2)c2ccc(C(=O)O)cc21 [Example 1008] |
| < 200 | O=C(O)c1ccc2c(C3CCCCC3)c(-c3ccoc3)n(CC(=O)N3CCC(N4CCCCC4)CC3)c2c1 [Example 1010] |
| < 200 | O=C(O)c1ccc2c(C3CCCCC3)c(-c3ccoc3)n(CC(=O)N3CCSCC3)c2c1 [Example 1012] |
| < 200 | CCN(CC)C1CCN(C(=O)Cn2c(-c3ccoc3)c(C3CCCCC3)c3ccc(C(=O)O)cc32)C1 (centres unmarked) [Example 1016] |
| < 200 | CCN(CCOC)C(=O)Cn1c(-c2ccoc2)c(C2CCCCC2)c2ccc(C(=O)O)cc21 [Example 1017] |
| < 200 | CN(C)CCCN(C)C(=O)Cn1c(-c2ccoc2)c(C2CCCCC2)c2ccc(C(=O)O)cc21 [Example 1019] |
| < 200 | CC1CN(C(=O)Cn2c(-c3ccoc3)c(C3CCCCC3)c3ccc(C(=O)O)cc32)CC(C)O1 (centres unmarked) [Example 1020] |
| < 200 | CCN(CC)CCN(C)C(=O)Cn1c(-c2ccoc2)c(C2CCCCC2)c2ccc(C(=O)O)cc21 [Example 1021] |
| < 200 | O=C(O)c1ccc2c(C3CCCCC3)c(-c3ccccc3)n(CC(=O)N3CCOCC3)c2c1 [Example 1023] |
| < 200 | O=C(O)c1ccc2c(C3CCCCC3)c(-c3ccccc3)n(CC(=O)N3CCC(N4CCCC4)CC3)c2c1 [Example 1024] |
| < 200 | CN(C)C(=O)Cn1c(-c2ccccc2)c(C2CCCCC2)c2ccc(C(=O)O)cc21 [Example 1025] |
| < 200 | O=C(O)c1ccc2c(C3CCCCC3)c(-c3ccsc3)n(CC(=O)N3CCOCC3)c2c1 [Example 1027] |
| < 200 | CN(C)C(=O)Cn1c(-c2ccsc2)c(C2CCCCC2)c2ccc(C(=O)O)cc21 [Example 1028] |
| < 200 | O=C(O)c1ccc2c(C3CCCCC3)c(-c3ccco3)n(CC(=O)N3CCOCC3)c2c1 [Example 1030] |
| < 200 | CN(C)C(=O)Cn1c(-c2ccco2)c(C2CCCCC2)c2ccc(C(=O)O)cc21 [Example 1031] |
| < 200 | O=C(O)c1ccc2c(C3CCCCC3)c(-c3cccs3)n(CC(=O)N3CCOCC3)c2c1 [Example 1033] |
| < 200 | O=C(O)c1ccc2c(C3CCCCC3)c(-c3cccs3)n(CC(=O)N3CCC(N4CCCC4)CC3)c2c1 [Example 1034] |
| < 200 | CN(C)C(=O)Cn1c(-c2cccs2)c(C2CCCCC2)c2ccc(C(=O)O)cc21 [Example 1035] |
| < 200 | O=C(O)c1ccc2c(C3CCCCC3)c(-c3ccsc3)n(CC(=O)N3CCC(N4CCCC4)CC3)c2c1 [Example 1037] |
| < 200 | O=C(O)c1ccc2c(C3CCCCC3)c(-c3ccco3)n(CC(=O)N3CCC(N4CCCC4)CC3)c2c1 [Example 1038] |
| < 200 | CN(C)C(=O)Cn1c(-c2ccoc2)c(C2CCCC2)c2ccc(C(=O)O)cc21 [Example 1044] |
| < 200 | O=C(O)c1ccc2c(C3CCCCC3)c(-c3cnccn3)n(CC(=O)N3CCC(N4CCCC4)CC3)c2c1 [Example 1045] |

Same assay, conditions: Table 4; class ranges

| IC50 [nM] | SMILES |
| --- | --- |
| 200 to 1000 | CN1CCN(C(=O)Cn2c(-c3ccoc3)c(C3CCCCC3)c3ccc(C(=O)NC4CC4c4ccccc4)cc32)CC1 (racemic) [Example 4038] |

Source: patent publication US7888363B2, “Viral polymerase inhibitors” (Boehringer Ingelheim International GmbH, priority 2003, dated 2011)
